Test system: patients with malignant brain tumors
Description: Blood/bone marrow toxicity data from patients with malignant brain tumors treated with carboplatin-based regimens with or without delayed high-dose STS were graded in accordance with National Cancer Institute Common Toxicity Criteria (NCI CTC) (version 2.0).
Treatment Regimen. Patients with a variety of malignant brain tumor histologies, including metastases to the brain, were eligible for treatment. Patients who had previously undergone central nervous system or systemic radiotherapy or chemotherapy were eligible, however 2 weeks must have elapsed since prior radiotherapy and 4 weeks since prior chemotherapy. Patients were required to have normal hematologic, renal and hepatic function.
The BBBD procedure was done on two consecutive days, approximately every 4 weeks for up to 12 months. Mannitol (25%) was infused (5-10 cc/sec) into the appropriate internal carotid or vertebral artery, depending on tumor location, for 30 seconds. The combination chemotherapy regimen consisted of cyclophosphamide (330 Mg/m^2/day×2 days; total dose, 660 mg/m^2) (i.v.) beginning approximately 20 minutes before the mannitol infusion, carboplatin (200 mg/m^2/day×2 days; total dose, 400 Mg/m^2) (i.a.) administered over 10 minutes, within 5 minutes after the mannitol, and etoposide (i.v.) or etoposide phosphate (200 mg/m^2/day×2 days; total dose, 400 mg/m^2) (i.a. or i.v.). Patients received granulocyte-colony stimulating factor (G-CSF) (5 mcg/kg) for 10 days after chemotherapy or until the absolute neutrophil count was greater than 1000/μL.
STS was available as a 25% (250 mg/ml) solution. Dose was determined (16 or 20 grams/m^2) and mixed with an equivalent amount of sterile water (1 ml: 1 ml) for infusion. […] The most commonly used regimen was benadryl (12.5 mg), dexamethasone (6 mg), and if needed, ativan (0.5-1.0 mg), i.v. 30-45 minutes before STS.
STS was administered i.v. over about 15 minutes. The number of STS doses the patient received depended on the patient baseline hearing status, and whether they experienced an ototoxic shift during treatment. Patients treated with BBBD/STS received STS in one dose (20 grams/m^2) 4 hours after carboplatin (n=10), or two doses (20 grams/m^2 at 4 hrs, and 16 grams/m^2 at 8 hours) after carboplatin (n=19).
Because malignant brain tumor patients are at risk for intracerebral hemorrhage, patients underwent platelet transfusion when platelet count was <20×10^3/mm^3. Following a platelet transfusion, on subsequent chemotherapy courses the carboplatin dose was reduced 25%.
Data Analysis. Blood/bone marrow toxicity data were graded in accordance with NCI CTC and analyzed in the following […] treatment groups: 1) patients treated with carboplatin, cyclophosphamide and etoposide with BBBD and without STS, and 2) patients treated with carboplatin, cyclophosphamide and etoposide phosphate with BBBD and with STS. For both groups, blood/bone marrow toxicity data from all carboplatin-based courses of patients in treatment were included in the analysis.
First, platelet nadirs were plotted for each subject and as means for each of the three study groups. For group comparisons, a mixed, repeated measures analysis of variance (ANOVA) model was fit using the parameter platelet nadir for each course as the measure. Gender, […] (≧70 or not), prior chemotherapy, prior radiation, and age at first course were included as covariates. Several other events were examined including grade 3 or 4 platelet toxicity as defined by NCI CTC, platelet transfusion, and the need for hematologically driven chemotherapy dose reduction. […] For present/absent outcomes as these, a mixed model repeated measures analysis (using the present/absent outcomes as the best response for each course) was performed. The mixed model ANOVA's using presence/absence of the outcome was adjusted for the covariates listed above.
Analyses were performed using Version 8.01 of SAS® for Windows.

O=S([O-])([O-])=S.[Na+].[Na+] [STS, sodium thiosulfate]
adverse effects caused by high-dose STS (16 or 20 grams/m^2 i.v., National Cancer Institute CTC, version 2.0): transient hypematremia, hypertension, and controllable grade II nausea and vomiting | patients requiring dose reduction of carboplatin (BBBD with STS): no patients | Platelet Nadir <20 × 10^3/mm^3, percent of carboplatin courses (BBBD/STS, 129 courses): 1% courses | Platelet Transfusions, percent of carboplatin courses (BBBD/STS, 129 courses): 2% courses | Dose Reductions of carboplatin, percent of patients (BBBD/STS, n = 29): 0% pts | Platelet Transfusions, percent of patients (BBBD/STS, n = 29): 7% pts | Platelet Nadir <20 × 10^3/mm^3, percent of patients (BBBD/STS, n = 29, carboplatin, cyclophosphamide, etoposide phosphate, STS i.v. 20 grams/m^2 at 4 h (and 16 grams/m^2 at 8 h) after carboplatin): 4% pts | grade 3 or 4 white blood cell toxicity, treatment groups with vs without STS (NCI CTC): no significant difference among treatment groups | grade 3 or 4 platelet toxicity, treatment groups with vs without STS (NCI CTC, adjusted for age at first carboplatin treatment, p=0.14): no significant difference among the treatment groups | rates of dose reduction of carboplatin, treatment groups with vs without STS (Pearson chi-square test): difference between the treatment groups was significant | platelet transfusion (present or absent), treatment groups with vs without STS (mixed model, p=0.035): significant difference between the treatment groups | platelet nadir <20×10^3/mm^3 (binary), treatment groups with vs without STS (mixed-model analysis of variance controlling for KPS≧70 and prior chemotherapy, p=0.0002): significant difference among the two treatment groups | estimated probabilities of platelet transfusions (patients treated with BBBD and STS, mixed model estimate (22.4% for BBBD without STS)): 9.0%
